Each structure is given as a SMILES string.

One test relates to MH-linked RyR1 mutant. More on the design: method as in PMID 29674523. The following applies: HEK293 cells; cited from earlier work.
For the next test, the target named is RyR2 (Sus scrofa, UniProt A0A5G2R1W3). The test is described as follows: FLT-FRET between D-FKBP and A-CaM bound to RyR2 in cardiac SR membranes (dose-response). It counts as binding, porcine. More on the design: RyR1 in skeletal SR membranes, and RyR2 in cardiac SR membranes; from tissue; host or cells: porcine cardiac left ventricle (crude SR vesicles). To be noted: RyR2 samples, 30 nM Ca2+. The protocol: Necessary counter-screens to our pathological RyR1 conditions include evaluating compound effects in healthy conditions and on the cardiac isoform, RyR2. Using the same FRET assay as in HTS, we tested the dose response of key Hits from this screen and the previously HTS-identified RyR1 inhibitor, chloroxine, on healthy (5 mM GSH) and pathological (5 mM GSSG) conditions for both RyR1 in skeletal SR membranes, and RyR2 in cardiac SR membranes.
Skeletal HSR and cardiac CSR (0.4 mg/ml) membranes were independently pre-incubated with 60 nM D-FKBP, for 90 min, at 37 °C, in a solution containing 150 mM KCl, 5 mM GSH, 0.1 mg/mL BSA, 1 µg/mL Aprotinin/Leupeptin, 1 mM DTT and 20 mM PIPES (pH 7.0). To remove unbound D-FKBP, the SR membranes were spun down at 110,000 × g for 20 min, and then resuspended to 1 mg/mL (skeletal HSR) and 2 mg/mL (cardiac CSR) in binding buffer consisting of 150 mM KCl, 5 mM GSSG, 0.1 mg/mL BSA, 1μg/mL Aprotinin/Leupeptin and 20 mM PIPES, pH 7.0. These samples were then incubated with indicated [A-CaM] for 30 min at 22 °C in binding buffer containing 0.065 mM CaCl2 to give 30 nM free Ca^2+ in the presence of 1 mM EGTA (calculated by MaxChelator). This labeled SR sample was applied to the assay plates in 5 μL aliquots using a Multidrop™ Combi reagent dispenser (Thermo Scientific) with a standard-tube. An additional set of the assay plates were loaded with skeletal HSR or cardiac CSR labeled with only D-FKBP (no added A-CaM).
FLT measurements were conducted in a top-read FLT-PR designed and built by Fluorescence Innovations, Inc[33]. AF488 donor fluorescence was excited with a 473-nm microchip laser from Concepts Research Corporation (Belgium, WI), and emission was acquired with 490-nm long-pass and 517/20-nm band-pass filters (Semrock, Rochester, NY).
FLT waveforms for each well were fit based on a one-exponential decay function using least-squares minimization global-analysis software (Fluorescence Innovations, Inc.), as previously described[19],[33]. FRET efficiency (E) was determined as the fractional decrease of donor FLT (τD), due to the presence of acceptor fluorophore (τDA), using the following equation:1 E=1−τDA/τD,

In a further test the target is RyR1 (Sus scrofa, UniProt P16960). Nature of the test: [3H]ryanodine binding to skeletal SR vesicles. It counts as biochemical, porcine. More on the design: RyR1 in skeletal SR membranes, and RyR2 in cardiac SR membranes; from tissue; host or cells: porcine longissimus dorsi muscle (heavy SR vesicles). The protocol: To evaluate the functional impact of compounds identified through our FRET-based screen, we first used [^3H]ryanodine binding assays. The level of [^3H]ryanodine binding to RyRs in SR membranes is a well-established index of the RyR channel activity. Given the role of CaM binding in our FRET readout, we investigated whether CaM influences the functional effect of the Hit compounds by carrying out [^3H]ryanodine binding assays in the absence and presence of CaM (300 nM).
Sequence of RyR1 (P16960 whole entry): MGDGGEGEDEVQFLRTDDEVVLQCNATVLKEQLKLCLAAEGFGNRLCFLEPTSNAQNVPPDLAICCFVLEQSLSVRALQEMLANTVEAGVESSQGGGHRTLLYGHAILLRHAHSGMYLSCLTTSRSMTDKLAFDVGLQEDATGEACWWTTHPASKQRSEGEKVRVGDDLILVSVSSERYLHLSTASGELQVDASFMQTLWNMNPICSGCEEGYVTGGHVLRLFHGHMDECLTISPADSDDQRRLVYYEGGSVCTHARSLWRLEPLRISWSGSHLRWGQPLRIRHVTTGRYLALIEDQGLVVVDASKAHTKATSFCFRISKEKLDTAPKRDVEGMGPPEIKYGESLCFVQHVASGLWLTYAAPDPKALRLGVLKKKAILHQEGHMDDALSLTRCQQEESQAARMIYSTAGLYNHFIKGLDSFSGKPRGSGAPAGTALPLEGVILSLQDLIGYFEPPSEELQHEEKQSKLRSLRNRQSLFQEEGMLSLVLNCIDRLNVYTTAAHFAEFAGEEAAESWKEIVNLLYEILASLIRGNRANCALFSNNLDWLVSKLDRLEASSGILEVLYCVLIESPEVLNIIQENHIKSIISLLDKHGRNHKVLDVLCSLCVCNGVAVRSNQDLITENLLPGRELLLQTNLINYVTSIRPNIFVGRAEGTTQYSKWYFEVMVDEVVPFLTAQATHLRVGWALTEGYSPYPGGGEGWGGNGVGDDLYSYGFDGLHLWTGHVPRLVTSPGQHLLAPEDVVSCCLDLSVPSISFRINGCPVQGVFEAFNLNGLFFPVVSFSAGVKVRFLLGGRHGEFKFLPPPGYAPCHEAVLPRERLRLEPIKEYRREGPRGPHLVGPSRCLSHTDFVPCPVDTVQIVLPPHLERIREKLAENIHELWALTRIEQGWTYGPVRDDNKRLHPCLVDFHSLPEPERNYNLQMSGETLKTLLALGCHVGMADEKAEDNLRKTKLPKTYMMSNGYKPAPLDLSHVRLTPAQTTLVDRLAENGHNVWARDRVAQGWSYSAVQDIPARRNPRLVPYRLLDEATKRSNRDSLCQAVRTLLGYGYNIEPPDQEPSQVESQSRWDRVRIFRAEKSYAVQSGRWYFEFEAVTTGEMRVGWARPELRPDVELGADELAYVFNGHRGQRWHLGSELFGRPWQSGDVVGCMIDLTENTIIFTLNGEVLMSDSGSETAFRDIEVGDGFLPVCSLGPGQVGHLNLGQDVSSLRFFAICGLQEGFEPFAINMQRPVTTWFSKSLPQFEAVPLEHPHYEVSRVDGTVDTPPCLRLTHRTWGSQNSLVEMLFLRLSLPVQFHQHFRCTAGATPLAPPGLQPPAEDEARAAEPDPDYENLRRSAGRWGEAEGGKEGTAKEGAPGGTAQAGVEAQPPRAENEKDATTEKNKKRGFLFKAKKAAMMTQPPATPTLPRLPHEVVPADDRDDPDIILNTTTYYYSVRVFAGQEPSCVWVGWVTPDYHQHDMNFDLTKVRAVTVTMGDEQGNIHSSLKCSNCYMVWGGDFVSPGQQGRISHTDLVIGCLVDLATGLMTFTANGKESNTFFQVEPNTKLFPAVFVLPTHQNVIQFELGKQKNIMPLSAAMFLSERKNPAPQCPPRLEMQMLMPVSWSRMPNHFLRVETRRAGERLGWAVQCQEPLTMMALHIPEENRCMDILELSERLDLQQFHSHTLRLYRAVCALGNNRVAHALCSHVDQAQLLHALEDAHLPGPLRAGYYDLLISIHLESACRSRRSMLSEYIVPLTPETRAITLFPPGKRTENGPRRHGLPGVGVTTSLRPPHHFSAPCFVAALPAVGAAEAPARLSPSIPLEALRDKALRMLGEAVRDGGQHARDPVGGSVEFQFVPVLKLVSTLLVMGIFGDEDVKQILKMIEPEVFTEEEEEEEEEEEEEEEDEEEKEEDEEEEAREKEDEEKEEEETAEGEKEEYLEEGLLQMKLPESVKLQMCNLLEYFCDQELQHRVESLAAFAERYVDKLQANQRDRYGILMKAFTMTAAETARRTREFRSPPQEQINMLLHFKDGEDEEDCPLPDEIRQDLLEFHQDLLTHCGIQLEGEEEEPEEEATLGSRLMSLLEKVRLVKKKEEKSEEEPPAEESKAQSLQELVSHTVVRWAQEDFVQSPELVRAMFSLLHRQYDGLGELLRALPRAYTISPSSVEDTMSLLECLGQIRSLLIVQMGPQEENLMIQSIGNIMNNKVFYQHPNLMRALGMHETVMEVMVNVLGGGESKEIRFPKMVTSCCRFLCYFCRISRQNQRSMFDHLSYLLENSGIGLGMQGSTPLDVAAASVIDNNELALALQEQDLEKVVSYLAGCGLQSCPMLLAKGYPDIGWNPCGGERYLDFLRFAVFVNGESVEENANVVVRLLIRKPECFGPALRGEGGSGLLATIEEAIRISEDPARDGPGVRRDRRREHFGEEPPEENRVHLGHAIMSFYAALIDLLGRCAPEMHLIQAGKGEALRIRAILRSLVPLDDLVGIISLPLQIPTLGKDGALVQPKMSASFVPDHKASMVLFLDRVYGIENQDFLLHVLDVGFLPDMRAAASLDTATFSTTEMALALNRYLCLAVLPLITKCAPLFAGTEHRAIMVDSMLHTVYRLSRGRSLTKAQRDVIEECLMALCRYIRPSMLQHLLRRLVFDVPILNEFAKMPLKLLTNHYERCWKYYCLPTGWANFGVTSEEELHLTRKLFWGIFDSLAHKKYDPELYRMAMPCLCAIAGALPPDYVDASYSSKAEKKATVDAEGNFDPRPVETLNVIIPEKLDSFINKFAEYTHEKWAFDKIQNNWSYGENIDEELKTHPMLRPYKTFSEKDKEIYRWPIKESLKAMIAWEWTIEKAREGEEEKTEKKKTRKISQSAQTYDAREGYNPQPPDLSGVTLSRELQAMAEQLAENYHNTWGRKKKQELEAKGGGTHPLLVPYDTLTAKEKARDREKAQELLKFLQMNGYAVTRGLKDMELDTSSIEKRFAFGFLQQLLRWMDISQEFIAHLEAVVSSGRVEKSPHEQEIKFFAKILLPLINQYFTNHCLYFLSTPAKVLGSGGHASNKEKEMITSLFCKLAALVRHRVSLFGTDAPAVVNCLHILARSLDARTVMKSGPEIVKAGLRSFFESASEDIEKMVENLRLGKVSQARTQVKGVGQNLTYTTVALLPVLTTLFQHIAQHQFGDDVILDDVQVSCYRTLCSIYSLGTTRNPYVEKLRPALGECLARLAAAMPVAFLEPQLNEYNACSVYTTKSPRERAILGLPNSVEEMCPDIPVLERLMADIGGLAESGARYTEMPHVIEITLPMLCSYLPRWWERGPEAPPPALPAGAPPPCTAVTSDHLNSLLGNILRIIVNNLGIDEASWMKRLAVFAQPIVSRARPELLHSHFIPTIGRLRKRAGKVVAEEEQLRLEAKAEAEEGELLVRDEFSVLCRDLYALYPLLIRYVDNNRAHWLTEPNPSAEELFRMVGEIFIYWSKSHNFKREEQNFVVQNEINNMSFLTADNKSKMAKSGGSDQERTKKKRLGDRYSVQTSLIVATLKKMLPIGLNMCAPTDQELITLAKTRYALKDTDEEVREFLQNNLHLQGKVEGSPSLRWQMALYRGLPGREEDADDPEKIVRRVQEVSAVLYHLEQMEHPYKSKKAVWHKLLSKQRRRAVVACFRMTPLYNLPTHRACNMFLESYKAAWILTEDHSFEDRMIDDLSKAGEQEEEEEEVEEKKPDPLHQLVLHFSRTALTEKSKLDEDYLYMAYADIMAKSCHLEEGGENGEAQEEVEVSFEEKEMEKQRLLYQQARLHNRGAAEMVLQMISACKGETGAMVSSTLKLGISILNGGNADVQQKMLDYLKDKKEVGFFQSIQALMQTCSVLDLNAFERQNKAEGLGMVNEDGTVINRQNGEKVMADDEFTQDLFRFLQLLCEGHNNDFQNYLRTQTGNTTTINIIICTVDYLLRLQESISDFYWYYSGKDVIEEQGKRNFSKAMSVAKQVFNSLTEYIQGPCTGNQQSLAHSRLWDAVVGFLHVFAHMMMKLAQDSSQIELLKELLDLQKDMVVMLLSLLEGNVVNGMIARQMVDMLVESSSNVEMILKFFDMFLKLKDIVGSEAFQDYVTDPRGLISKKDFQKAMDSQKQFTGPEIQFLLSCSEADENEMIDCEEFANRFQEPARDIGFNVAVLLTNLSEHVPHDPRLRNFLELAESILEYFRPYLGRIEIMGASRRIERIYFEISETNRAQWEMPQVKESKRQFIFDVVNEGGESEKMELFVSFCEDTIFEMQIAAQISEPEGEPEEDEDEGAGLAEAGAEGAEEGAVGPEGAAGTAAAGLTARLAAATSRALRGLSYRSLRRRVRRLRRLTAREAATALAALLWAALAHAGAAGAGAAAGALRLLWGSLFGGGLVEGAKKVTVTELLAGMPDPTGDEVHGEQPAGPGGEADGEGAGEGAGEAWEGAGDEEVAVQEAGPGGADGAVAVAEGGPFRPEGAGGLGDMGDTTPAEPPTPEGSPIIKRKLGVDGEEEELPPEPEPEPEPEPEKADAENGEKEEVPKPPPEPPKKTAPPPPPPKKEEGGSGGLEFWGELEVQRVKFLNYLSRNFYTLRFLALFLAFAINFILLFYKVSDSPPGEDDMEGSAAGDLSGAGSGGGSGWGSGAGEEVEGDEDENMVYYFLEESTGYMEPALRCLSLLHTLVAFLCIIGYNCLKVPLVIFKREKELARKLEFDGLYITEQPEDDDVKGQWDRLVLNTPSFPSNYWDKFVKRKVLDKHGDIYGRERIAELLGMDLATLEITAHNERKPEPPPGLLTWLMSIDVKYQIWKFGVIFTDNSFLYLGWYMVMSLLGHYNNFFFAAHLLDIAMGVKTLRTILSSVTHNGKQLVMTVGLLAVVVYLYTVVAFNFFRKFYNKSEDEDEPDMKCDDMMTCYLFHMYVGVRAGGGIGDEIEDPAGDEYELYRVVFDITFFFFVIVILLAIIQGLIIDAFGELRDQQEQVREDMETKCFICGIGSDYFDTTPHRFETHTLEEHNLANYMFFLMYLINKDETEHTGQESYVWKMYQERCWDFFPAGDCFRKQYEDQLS
Crude sarcoplasmic reticulum (CSR) vesicles were isolated from porcine longissimus dorsi muscle and porcine cardiac left ventricle tissue by differential centrifugation of homogenized tissue. HSR vesicles, which are enriched in RyR1, were isolated by fractionation of crude skeletal SR vesicles using a discontinuous sucrose gradient. All vesicles were flash-frozen and stored at −80 °C. Immediately prior to the fluorescence or [^3H]ryanodine binding studies described below, the SR vesicles were stripped of residual endogenous CaM by incubation with a peptide derived from the CaM binding domain of myosin light chain kinase, followed by sedimentation.
In 96-well plates, HSR vesicles (1 mg/ml) and cardiac CSR vesicles (3 mg/mL) were pre-incubated with 0.02% DMSO or Hit compound, with or without 300 nM CaM, for 30 min at 22 °C in a solution containing 150 mM KCl, 5 mM GSSG, 1 µg/mL Aprotinin/Leupeptin, 1 mM EGTA, and 65 µM or 1.02 mM CaCl2 (as determined by MaxChelator to yield 30 nM or 30 μM of free Ca^2+, respectively), 0.1 mg/mL BSA and 20 mM K-PIPES (pH 7.0). Non-specific and maximal [^3H]ryanodine binding to SR were separately assessed by addition of 40 µM non-radioactively labeled ryanodine or 5 mM Adenylyl-imidodiphosphate, respectively. Such control samples were each distributed over 4 wells/plate. Binding of [^3H]ryanodine (10 and 15 nM for cardiac and skeletal SR, respectively) was determined after a 3-h incubation (37 °C) and filtration through grade GF/B Glass Microfiber filters (Brandel Inc., Gaithersburg, MD, US) using a Brandel Harvester. In 4 mL of Ecolite Scintillation cocktail (MP biomedicals, Solon, OH, USA), [^3H] on filter was counted using a Beckman LS6000 scintillation counter (Fullerton, CA).

`Oc1c(Cl)cc(Cl)c2cccnc12` [chloroxine]: the “Effect on readout of ER Ca2+ phenotypic screen” value with MH-linked RyR1 mutant is “increased RyR1 activity”. Besides, the “Effect on FRET” value on RyR2 is given as “did not alter FRET”.

As to `O=c1c(O)c(-c2cc(O)c(O)c(O)c2)oc2cc(O)cc(O)c12` [myricetin], the “Maximum decrease in [3H]ryanodine binding” value at RyR1 (1 μM compound, 30 μM Ca2+) is listed as ~ 20%. Besides, the “Effect on [3H]ryanodine binding” value at RyR1 (20 μM compound, 30 nM Ca2+, only in the absence of CaM) is “dramatically increased”; at RyR1 (30 μM Ca2+, presence and absence of 0.3 μM CaM, 0-20 μM compound), “biphasic effect”. Also, the “Decrease in [3H]ryanodine binding” value on RyR1 (≤ 10 μM compound, 30 nM Ca2+, with or without CaM) is listed as over 50%.

Source of the values: publication PMC7000700, “RyR1-targeted drug discovery pipeline integrating FRET-based high-throughput screening and human myofiber dynamic Ca^2+ assays” (Scientific Reports, 2020).
